Results taken from ChEMBL document CHEMBL3860094, “Synthesis, structure determination, and biological evaluation of phenylsulfonyl hydrazide derivatives as potential anti-inflammatory agents” (Bioorg Med Chem Lett, 2016).

Tests used:
Prostaglandin E synthase = target: T1, Prostaglandin E synthase (Mus musculus, UniProt Q9JM51); assay: Inhibition of mPGES-1 in mouse RAW264.7 cells assessed as reduction in LPS-induced PGE2 production after 24 hrs; format: cell-based
T1 sequence (Q9JM51 whole entry): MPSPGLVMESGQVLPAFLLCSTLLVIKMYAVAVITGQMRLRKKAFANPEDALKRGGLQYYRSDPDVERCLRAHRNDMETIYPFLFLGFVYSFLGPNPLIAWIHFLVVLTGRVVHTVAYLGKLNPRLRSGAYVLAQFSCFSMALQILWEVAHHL

[1] = target: T2, Prostaglandin G/H synthase 1 (Ovis aries, UniProt P05979); assay: Inhibition of ovine COX1 by enzyme immunoassay
T2 sequence (P05979 whole entry): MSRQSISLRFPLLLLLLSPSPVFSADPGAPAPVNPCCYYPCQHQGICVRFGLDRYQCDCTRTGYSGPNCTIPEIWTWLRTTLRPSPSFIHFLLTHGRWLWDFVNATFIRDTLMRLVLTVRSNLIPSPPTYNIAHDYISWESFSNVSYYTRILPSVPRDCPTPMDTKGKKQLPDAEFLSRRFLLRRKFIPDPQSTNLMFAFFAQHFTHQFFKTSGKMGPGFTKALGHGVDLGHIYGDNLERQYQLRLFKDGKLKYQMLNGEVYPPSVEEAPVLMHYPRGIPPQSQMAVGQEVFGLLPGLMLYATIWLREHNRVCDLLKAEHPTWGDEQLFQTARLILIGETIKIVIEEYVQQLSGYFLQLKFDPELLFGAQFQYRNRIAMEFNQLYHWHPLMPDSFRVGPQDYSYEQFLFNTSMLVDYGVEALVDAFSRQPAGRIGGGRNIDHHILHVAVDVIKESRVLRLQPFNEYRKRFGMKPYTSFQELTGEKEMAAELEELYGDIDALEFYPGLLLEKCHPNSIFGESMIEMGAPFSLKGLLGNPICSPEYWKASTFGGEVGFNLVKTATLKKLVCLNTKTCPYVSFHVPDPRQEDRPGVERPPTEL

[2] = Metabolic stability in rat liver microsomes assessed as compound remaining after 30 mins; format: ADME; settings: read-out: Stability
Mus musculus = species on record: Mus musculus; assay: Cytotoxicity against LPS-stimulated mouse RAW264.7 cells assessed as concentration required for reduction in cell viability after 24 hrs by MTT assay; format: toxicity, cell-based; settings: raw264.7, 24 h
[3] = Metabolic stability in mouse liver microsomes assessed as compound remaining after 30 mins; format: ADME; settings: read-out: Stability
[4] = Metabolic stability in dog liver microsomes assessed as compound remaining after 30 mins; format: ADME, Canis lupus familiaris; settings: read-out: Stability
[5] = target: T3, Prostaglandin E synthase (Mus musculus) (UniProt Q9JM51); assay: Inhibition of mPGES-1 in mouse RAW264.7 cells assessed as reduction in LPS-induced PGE2 production at 1 uM after 24 hrs relative to control; format: cell-based
T3 sequence (whole entry): T1 sequence (Q9JM51 whole entry)

[6] = target: T4, Prostaglandin G/H synthase 2 (Homo sapiens, UniProt P35354); assay: Inhibition of recombinant human COX2 by enzyme immunoassay
T4 sequence (P35354 whole entry): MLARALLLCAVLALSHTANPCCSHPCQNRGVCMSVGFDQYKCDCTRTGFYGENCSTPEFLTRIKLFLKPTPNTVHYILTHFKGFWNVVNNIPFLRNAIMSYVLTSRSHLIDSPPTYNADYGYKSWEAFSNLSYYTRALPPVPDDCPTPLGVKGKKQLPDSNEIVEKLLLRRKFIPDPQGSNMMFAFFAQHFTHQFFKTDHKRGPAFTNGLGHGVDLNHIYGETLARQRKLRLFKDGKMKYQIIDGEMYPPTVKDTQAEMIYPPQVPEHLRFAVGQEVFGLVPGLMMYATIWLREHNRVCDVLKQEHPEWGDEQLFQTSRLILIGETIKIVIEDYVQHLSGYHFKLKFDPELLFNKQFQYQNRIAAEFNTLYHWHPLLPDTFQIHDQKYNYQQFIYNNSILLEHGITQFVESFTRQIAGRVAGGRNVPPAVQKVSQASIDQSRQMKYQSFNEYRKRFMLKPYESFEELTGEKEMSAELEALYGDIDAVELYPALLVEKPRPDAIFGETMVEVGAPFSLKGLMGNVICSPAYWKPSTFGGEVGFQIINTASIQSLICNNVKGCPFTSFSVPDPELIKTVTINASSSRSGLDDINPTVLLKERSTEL

[7] = Metabolic stability in human liver microsomes assessed as compound remaining after 30 mins; format: ADME; settings: read-out: Stability
[8] = target: T3, Prostaglandin E synthase (Mus musculus); assay: Inhibition of mPGES-1 in mouse RAW264.7 cells assessed as reduction in LPS-induced PGE2 production at 10 uM after 24 hrs relative to control; format: cell-based
[9] = target: T3, Prostaglandin E synthase (Mus musculus); assay: Inhibition of mPGES-1 in mouse RAW264.7 cells assessed as reduction in LPS-induced PGE2 production at 3 uM after 24 hrs relative to control; format: cell-based

SMILES | IC50 (Prostaglandin E synthase) [nM] | IC50 [1] [nM] | remaining at 0.5 h [2] [%] | remaining at 0.5 h [3] [%] | remaining at 0.5 h [4] [%] | inhibition [5] [%] | IC50 [6] [nM] | remaining at 0.5 h [7] [%] | inhibition [8] [%] | inhibition [9] [%] | Activity (Mus musculus) [µM]
COc1ccc(S(=O)(=O)N(Nc2ccccc2)C(=O)Oc2ccc(OCc3ccccc3)cc2)cc1 | 60 | > 1000 | 16.3 | 42.2 | 48.5 | 84 | > 1000 | 66.6 |  |  | > 10
COc1ccc(S(=O)(=O)NN(C(=O)Oc2ccccc2OC)c2ccccc2)cc1 | > 10000 |  |  |  |  | 0 |  |  | 18 |  | > 10
CS(=O)(=O)Nc1ccc([N+](=O)[O-])cc1OC1CCCCC1 [NS-398] | 7 |  |  |  |  |  |  |  |  | 86 | 
O=C(Oc1ccc2c(c1)CCC2)N(Nc1ccccc1)S(=O)(=O)c1ccc(Cl)cc1 | 550 | > 1000 |  |  |  | 75 | > 1000 |  |  |  | > 10
O=C(Oc1ccc2c(c1)CCC2)N(NS(=O)(=O)c1ccc(Cl)cc1)c1ccccc1 | 790 | > 1000 |  |  |  | 73 | > 1000 |  |  |  | > 10

Second part, led by results:

IC50 (Prostaglandin E synthase) [nM] | IC50 [1] [nM] | remaining at 0.5 h [2] [%] | remaining at 0.5 h [3] [%] | remaining at 0.5 h [4] [%] | inhibition [5] [%] | IC50 [6] [nM] | remaining at 0.5 h [7] [%] | inhibition [8] [%] | inhibition [9] [%] | SMILES | Activity (Mus musculus) [µM]
 |  |  |  |  |  |  | < 5 |  |  | COc1ccc(CCN(C)CCCC(C#N)(c2ccc(OC)c(OC)c2)C(C)C)cc1OC (stereo unspecified) | 
690 | > 1000 |  |  |  | 63 | > 1000 |  |  |  | COc1ccc(S(=O)(=O)N(Nc2ccccc2)C(=O)Oc2ccccc2OC)cc1 | > 10
